Data set [1] in a line: UPLC-ESI-MS quantitation of sanggenons C and D in serum and tissue samples, acute toxicity study. The data set is classed as in vivo, BALB/c mice. The following applies: for serum concentration: one (efficacy study) and three (acute toxicity study) hours after the last oral MA60 administration; for concentration at 3 h: BALB/c, mouse, serum, oral.
Data set [2] in a line: MS/MS search for metabolites of sanggenons C and D in serum samples. The data set is classed as in vivo, BALB/c mice. How it is done: In the present study, concentration of bioactive sanggenons C and D was determined in serum and tissue samples and correlated with the administered the doses of MA60. […] Already during dose finding and acute toxicity studies, a high variation in serum concentrations of the selected marker compounds was detected within all three dose groups (30, 100, and 300 mg/kg). No dose dependency could be observed regarding the serum concentrations. This might be due to i) inhomogeneities in the CMC suspension of the MA60 extract, ii) the inter-individual differences in the resorption of sanggenons, or iii) the formation of sanggenon metabolites: • (i) For oral gavage administration, MA60 was suspended in 0.3% carboxymethyl cellulose (CMC) as vehicle. This is based on literature data, where even a higher dose of up to 400 mg/kg of a 70% EtOH extract of M. alba root bark ([Lim et al., 2013]) was previously administered to mice per gavage feeding. […] In the present study, an MS/MS analysis was conducted to also search for metabolites of the selected marker compounds sanggenon C and sanggenon D. The search included (di)glucuronides and hydroxylated metabolites as well as further conjugates such as sulfated metabolites.

The conditions of data set [3]: in vivo; cited from earlier work.
Where [4] appears, read: MA60 30 mg/kg oral, samples 26-30 in order, 3 h after last treatment.
Setting [5] is: MA60 100 mg/kg oral, samples 31-35 in order, 3 h after last treatment.
[6] abbreviates: MA60 300 mg/kg oral, samples 36-40 in order, 3 h after last treatment.
[7] abbreviates: MA60 100 mg/kg oral once daily for seven days, samples 68-71 in order, sacrificed 24 h after last application.

Several values for one entry are separate records, joined by “and”; a condition that tells them apart may be missing. Identical values can stand only once. Like-named read-outs stand apart in the source and are kept apart here.

sanggenon D: the “quantified amount of sanggenon D liver, individual samples” value (“quantified amount of sanggenon D liver” for short) in data set [1] (setting [4]) is listed as “n.f”; the “quantified amount of sanggenon D liver” value in data set [1] (setting [5]) was “n.f. and 34.18 ng/mL and 26.97 ng/mL”; the “quantified amount of sanggenon D liver” value in data set [1] (setting [6]) was 70.13 ng/mL and 89.18 ng/mL and 979.27 ng/mL and 996.87 ng/mL and 447.53 ng/mL; the “quantified amount of sanggenon D liver” value under setting [7] is given as “n.f”. The “quantified amount of sanggenon D lung, individual samples” value (from here on “quantified amount of sanggenon D lung”) in data set [1] (setting [4]) is “n.f. (4×) and 1,005.12 ng/mL”; the “quantified amount of sanggenon D lung” value in data set [1] (setting [5]) is “n.f. (2×) and 2,980.27 ng/mL and 343.27 ng/mL and 10,306.71 ng/mL”; the “quantified amount of sanggenon D lung” value in data set [1] (setting [6]) is recorded as “n.f”; the “quantified amount of sanggenon D lung” value under setting [7] is listed as “n.f”; the “quantified amount of sanggenon D lung” value (MA60 100 mg/kg oral, samples 64-67 in order, sacrificed 1 h after treatment) is “n.f”. Further, in data set [1] (high dose group (300 mg/kg), #38 and #39), the “sanggenon D concentration in liver tissues” value is on record as about 1 µg/mL. Moreover, the “sanggenon D in liver samples” value in data set [1] (low dose group (MA60 30 mg/kg oral)) is recorded as “not detected”. In addition, the serum concentration result in data set [1] is “less than 1%”. Besides, in data set [2] (MS/MS analysis after oral MA60), the “metabolites ((di)glucuronides, hydroxylated, sulfated conjugates) in serum samples” value is given as “neither the corresponding masses nor the phase-II-conjugates could be detected”. Further, the “sanggenon D in liver” value is, setting by setting: (MA60 100 mg/kg oral, after 24 h) “could not be determined”; (MA60 100 mg/kg oral, mice sacrificed after 1 h) “high amount”.
On to `C=C(C)[C@H](CC=C(C)C)Cc1c(O)cc(OC)c(C(=O)/C=C/c2ccc(O)cc2O)c1O` [kuraridin], for which, in data set [3], the “metabolites found in rat serum” value is “mono- and di-glucuronides as well as hydroxylated derivatives”.
For `CC(C)=CC[C@]12Oc3cc(O)c([C@H]4C=C(C)C[C@H](c5ccc(O)cc5O)[C@H]4C(=O)c4ccc(O)cc4O)c(O)c3C(=O)[C@@]1(O)Oc1cc(O)ccc12` [sanggenon C], the concentration at 3 h is under 9.1 ng/mL in data set [1] (30 mg/kg, MA60 30 mg/kg oral once daily 7 days, 3 h after last treatment, read-out: amount of sanggenon C in serum (dose group)); 4.97 ng/mL in data set [1] (30 mg/kg, MA60 30 mg/kg oral, samples 26-30 in order, 3 h after last treatment, read-out: quantified amount of sanggenon C serum, individual samples); 7.94 to 31.5 ng/mL in data set [1] (100 mg/kg, MA60 100 mg/kg oral once daily 7 days, 3 h after last treatment, read-out: amount of sanggenon C in serum (dose group)); 21.2 to 227 ng/mL in data set [1] (300 mg/kg, MA60 300 mg/kg oral once daily 7 days, 3 h after last treatment, read-out: amount of sanggenon C in serum (dose group)); under 2 ng/mL in data set [1] (mice sacrificed 3 hours after the last application, read-out: average serum concentration of sanggenon C). Also, the “quantified amount of sanggenon C serum, individual samples” value was “n.f. (3×) and 9.10 ng/mL” in data set [1] (setting [4]); 7.94 ng/mL and 9.28 ng/mL and 31.53 ng/mL and 11.17 ng/mL and 13.02 ng/mL in data set [1] (setting [5]); 25.74 ng/mL and 21.21 ng/mL and 227.26 ng/mL and 24.13 ng/mL and 103.00 ng/mL in data set [1] (setting [6]). Besides, the serum concentration entry in data set [1] was “less than 1%”. In addition, the “metabolites ((di)glucuronides, hydroxylated, sulfated conjugates) in serum samples” value in data set [2] (mouse, in vivo, po) is on record as “neither the corresponding masses nor the phase-II-conjugates could be detected”. Also, the “serum concentrations of sanggenon C (group)” value (MA60 100 mg/kg oral, after 24 h (#68-#71), below this value or not detectable) is reported as “below 2.77 ng/mL”.

The record behind these values is publication PMC10739329, “Correlation of bioactive marker compounds of an orally applied Morus alba root bark extract with toxicity and efficacy in BALB/c mice” (Frontiers in Pharmacology, 2023).
